Laboratory results: patent EP0237138A1, “Heterocyclic compounds, their preparation and, pharmaceutical compositions containing them” (YAMANOUCHI PHARMACEUTICAL CO. LTD., priority 1986, dated 1987)

Key:
[1] = molecular target: T1, human placenta aldose reductase (Homo sapiens, UniProt P15121); experiment: Aldose reductase-inhibitory activity (rate of disappearance of NADPH, glyceraldehyde substrate); type: biochemical; details: for inhibition at 1 µM: 10^-6(M); for inhibition at 0.1 µM: 10^-7(M)
T1 construct: a human placenta aldose reductase was purified to a single protein; from tissue; host or cells: human placenta
Procedure: The compound of the present invention, aldose reductase and nicotinamide adenine dinucleotide phosphate (NADPH) are dissolved in a buffer of pH 6.2 and incubated for 10 minutes at 25°C; glyceraldehyde is added thereto to start the reaction, and the rate of disappearance of NADPH is defined to be the enzyme activity of the aldose reductase.

[2] = system: Platelet aggregation in PRP; experiment: Platelet aggregation-inhibitory activity (arachidonate-induced aggregation in platelet-rich plasma, Born's method); details: aggregation induced by arachidonate

Compound | inhibition at 1 µM [1] [%] | inhibition at 0.1 µM [1] [%] | Platelet Aggregation Inhibition ([2]; 200 (μM)) [%] | Platelet Aggregation Inhibition ([2]; 400 (μM)) [%]
COc1ccc2c(c1)CCCC2=C1SC(=S)N(CC(=O)O)C1=O [Example 7, 5-(6-methoxy-1,2,3,4-tetrahydro-1-natphylidene)-4-oxo-2-thioxo-3-thiazolidine-acetic acid] | 93 | 65 | 100 | 
COc1cccc2c1CCCC2=C1SC(=S)N(CC(=O)O)C1=O [Example 11, 5-(5-methoxy-1,2,3,4-tetrahydro-1-naphthylidene)-4-oxo-2-thioxo-3-thiazolidine-acetic acid] | 89 | 40 |  | 
O=C(O)c1ccc(N2C(=O)C(=C3CCS(=O)(=O)c4ccccc43)SC2=S)cc1 [Example 54, 4-[3-(p-carboxyphenyl)-4-oxo-2-thioxo-5-thiazolidinylidene]thiochroman 1,1-dioxide] | 30 | 15 | 65 | 
O=C1NC(=S)SC1=C1C(=O)Nc2ccc(Cl)cc21 [Example 66, 5-chloro-3-(4-oxo-2-thioxo-5-thiazolidinylidene)-2-indolinone] | 72 |  |  | 
N=C1NC(=O)C(=C2CCS(=O)(=O)c3ccccc32)S1 [Example 95, 4-(2-imino-4-oxo-5-thiazolidinylidene)thiochroman 1,1-dioxide] | 65 | 19 |  | 43
O=C1NC(=S)SC1=C1C=CS(=O)(=O)c2ccccc21 [Example 119] | 53 | 37 |  | 84
O=C1NC(=O)[C@@]2(CCOc3ccc(F)cc32)N1 [Sorbinil, reference compound] | 53.6 | 15 |  | 

Further lines, with some results ahead:

inhibition at 1 µM [1] [%] | Compound | inhibition at 0.1 µM [1] [%] | Platelet Aggregation Inhibition ([2]; 200 (μM)) [%] | Platelet Aggregation Inhibition ([2]; 400 (μM)) [%]
65 | O=C1NC(=S)SC1=C1CCCS(=O)(=O)c2ccccc21 [Example 49, 2,3,4,5-tetrahydro-5-(4-oxo-2-thioxo-5-thiazolidinylidene)-1-benzothiepine 1,1-dioxide] | 23 |  | 
64 | O=C1NC(=S)SC1=C1C(=O)Nc2ccc(Br)cc21 [Example 67, 5-bromo-3-(4-oxo-2-thioxo-5-thiazolidinylidene)-2-indolinone] |  |  | 
87 | O=C1NC(=O)/C(=C2\CCS(=O)(=O)c3ccccc32)S1 [Example 99B, (Z)-4-(2,4-dioxo-5-thiazolidinylidene)thiochroman 1,1-dioxide] | 42 |  | 
83 | O=C1NC(=S)SC1=C1CCSc2ccccc21 [Example 105, 4-oxo-5-(4-thiochromanylidene)-2-thioxo-thiazolidine] | 29 |  | 
56 | O=C1NC(=S)SC1=C1C(=O)Nc2ccccc21 [Example 146, 3-(4-oxo-2-thioxo-3-thiazolidinylidene)-2-indolinone] |  |  | 
